Entries after “also recorded” stand apart in the source; their conditions may differ. Where a name gives a salt, the structure may show the parent alone. Read-outs that look alike come from different tables or passages of the source.
What was measured:
[1] = Nonperfused brain (NPB) kinetics of phenolic metabolites after oral capsule; format: in vivo, Sprague–Dawley rats; parameters: AUC0-t NPB: concentration or dose not given beside the values; conditions: nonperfused brain, oral capsule, 0-24 h, n = 3 per time point
Text: (§1) Statistical analyses were applied depending on the experimental context.

[2] = Perfused brain (PB) kinetics of phenolic metabolites after oral capsule; format: in vivo, Sprague–Dawley rats; parameters: AUC0-t PB: concentration or dose not given beside the values; conditions: for Tmax: male, Sprague-Dawley, rat, 22 mg extract blend per capsule, one capsule per animal; for Tmax / AUC0-t PB / Cmax PB / Tmax PB / MRT0-t PB / T1/2 PB: perfused brain, oral capsule, 0-24 h, n = 3 per time point; for PB versus NPB comparison: perfused versus nonperfused brain
Text: as §1

[3] = Targeted metabolomics (UPLC-ESI-QTOF) identification of metabolites in plasma, PB and NPB; conditions: P plasma, PB perfused brain, NPB nonperfused brain, 1-24 h after oral capsule
Description: Adult male Sprague–Dawley rats weighing 250–300 g were purchased from the Animal Experimentation Service of the University of Murcia (Murcia, Spain). […] Based on the experimental design shown in Figure 1, one capsule was administered by gavage to each fasting animal. A total of 40 animals were used in the study. Thirty animals received a capsule containing a mixture of different Mediterranean food extracts, while ten animals received a capsule with microcrystalline cellulose and served as the control group. […] To minimize animal use in accordance with the 3Rs principle, two control animals were sacrificed at each time point (one PB and one NPB). These controls served to identify potential endogenous compounds or background signals not related to the extract administration. All animals were fasted overnight prior to gavage and euthanized with carbon dioxide.
Plasma samples were extracted with ACN:formic acid (98:2, v/v), centrifuged and evaporated in a speed vacuum concentrator (Savant SPD14 0DDA). The evaporated samples were resuspended in 100 μL MeOH and filtered through 0.22 μm regenerated cellulose filters (Minisart Sartorius, Madrid, Spain). Next, half of the animals at each time point were perfused with ice-cold phosphate-buffered saline, and the blood-free brain was dissected out immediately and stored at – 80 °C until analysis, as previously reported.[37],[48]
Approximately 400 mg of brain tissue (perfused or nonperfused) was weighed and extensively washed with cold PBS to avoid external blood contamination. After weighting, the samples were placed in 2 mL screw cap tubes. […] The evaporated samples were resuspended in 100 μL MeOH and filtered through 0.22 μm regenerated cellulose filters.
We performed a targeted metabolomic analysis using an ultrahigh-performance liquid chromatographic system (UPLC) coupled to a quadrupole-time-of-flight (QTOF) mass spectrometer. The phenolic compounds were separated using an Agilent Poroshell 120 column (100 mm × 3 mm, 2.7 μm) and a 5 μL injection volume. […] The flow rate was set constant at 0.4 mL/min. The spectra were acquired in the m/z range from 100 to 1100, in negative polarity mode and an acquisition rate of 1.5 spectra per second. Quantitative data were processed using the Mass HunterQualitative Analysis software (version B.08.00, Agilent). A target screening strategy was applied for the qualitative analysis of possible metabolites derived from the consumption of the Mediterranean blend. […] These compounds encompass derived metabolites conjugated (glucuronides, sulfates, and sulfoglucuronides, among others). The exact mass of the proposed compound was extracted using an extraction window of 0.01 m/z. Metabolite quantification was performed by integrating the peak areas of their extracted ion chromatograms (EICs). Compounds with available standards were quantified using calibration curves derived from the respective standards, while other metabolites were semiquantified based on their peak area values.

[4] = Plasma pharmacokinetics of phenolic metabolites after oral capsule of (poly)phenol-rich Mediterranean extract mixture; conditions: for AUC0-t plasma / MRT0-t plasma / T1/2 plasma / Tmax plasma: oral capsule, 0-24 h, n = 6 per time point
Description: Adult male Sprague–Dawley rats weighing 250–300 g were purchased from the Animal Experimentation Service of the University of Murcia (Murcia, Spain). […] Animals were maintained in a temperature-controlled environment with a 12 h light-dark cycle. […] Based on the experimental design shown in Figure 1, one capsule was administered by gavage to each fasting animal. A total of 40 animals were used in the study. Thirty animals received a capsule containing a mixture of different Mediterranean food extracts, while ten animals received a capsule with microcrystalline cellulose and served as the control group. At each time point (1, 3, 6, 8, and 24 h postadministration), six animals from the extract group were sacrificed, three with transcardial perfusion using saline (PB) and three without perfusion (NPB), to assess the distribution of extract-derived metabolites in plasma and brain. To minimize animal use in accordance with the 3Rs principle, two control animals were sacrificed at each time point (one PB and one NPB). […] All animals were fasted overnight prior to gavage and euthanized with carbon dioxide.
Blood samples collected by cardiac puncture in sodium heparin tubes at each time point after sacrifice were immediately centrifuged at 14,000 × g for 15 min at 4 °C, and the plasma was stored at −80 °C until their analysis. Plasma samples were extracted with ACN:formic acid (98:2, v/v), centrifuged and evaporated in a speed vacuum concentrator (Savant SPD14 0DDA). The evaporated samples were resuspended in 100 μL MeOH and filtered through 0.22 μm regenerated cellulose filters (Minisart Sartorius, Madrid, Spain).
We performed a targeted metabolomic analysis using an ultrahigh-performance liquid chromatographic system (UPLC) coupled to a quadrupole-time-of-flight (QTOF) mass spectrometer. The phenolic compounds were separated using an Agilent Poroshell 120 column (100 mm × 3 mm, 2.7 μm) and a 5 μL injection volume. The mobile phases used were 0.1% formic acid in water (A) and 0.1% formic acid in ACN (B), and the gradient was: 0–3 min, 5–15% B; 3–11 min, 15–30% B; 11–14 min, 30–50% B, 14–16 min, 50–90% B. Finally, the B content was decreased to the initial conditions (5%) in 1 min, and the column re-equilibrated for 4 min. The flow rate was set constant at 0.4 mL/min. The spectra were acquired in the m/z range from 100 to 1100, in negative polarity mode and an acquisition rate of 1.5 spectra per second.

[5] = male, Sprague-Dawley, rat, 22 mg extract blend per capsule, one capsule per animal
[6] = male, Sprague-Dawley, rat, po, 22 mg extract blend per capsule, one capsule per animal
[7] = read-out: Cmax plasma, oral capsule, 0-24 h, n = 6 per time point

Molecule | AUC0-t NPB [1] [pmol·h/g] | Cmax NPB [1] [pmol/g tissue] | AUC0-t PB [2] [pmol·h/g] | Cmax PB [2] [pmol/g tissue] | AUC0-t plasma [4] [µM·h] | MRT0-t plasma [4] [h] | T1/2 plasma [4] [h] | Tmax plasma [4] [h] | Cmax [4, 7] [nM] | occurrence [3] | also measured
COc1ccc(CCC(=O)O)cc1O [3-(3′-hydroxy-4′-methoxyphenyl)propionic acid)] |  |  |  |  |  |  |  |  |  | PB, NPB, P | PB versus NPB comparison [2]: higher concentrations in PB
O=C1CCC(Cc2ccc(O)c(OS(=O)(=O)O)c2)O1 (stereo not drawn) [5-(3,4-dihydroxyphenylvalerolactone) sulfate] |  |  |  |  | 0.113 ± 0.078 | 31 ± 44 | 19 ± 29 | 4.5 ± 1.7 | 12.1 ± 5 | undetectable in both PB and NPB | occurrence ([3]; listed as 5-(3,4-dihydroxyphenyl)valerolactone sulfate): exclusively detected in plasma
COc1cc(/C=C/C(=O)O)ccc1OS(=O)(=O)O [ferulic acid 4-O-sulfate] | 4.8 ± 2.6 | 0.3 ± 0.2 | 3.0 ± 0.5 | 0.2 ± 0.1 | 1.114 ± 0.459 | 14 ± 5.1 | 12 ± 6.3 | 4.2 ± 1.6 | 129 ± 107 | PB, NPB, P | Tmax NPB [1]: 1.0 ± 0.0 h; Tmax PB [2]: 12 ± 11 h; PB versus NPB comparison [2]: significantly lower AUC values in PB compared to NPB; plasma concentration relative to p-coumaric acid 4-O-sulfate [4]: approximately 3 fold
COc1ccc(C2CC(=O)c3c(O)cc(O)cc3O2)cc1O[C@@H]1O[C@H](C(=O)O)[C@@H](O)[C@H](O)[C@H]1O (stereo partly drawn) [hesperetin 3′-O-glucuronide] |  |  |  |  | 0.011 ± 0.0013 | 23.48 | 14.80 | 5.7 ± 2.7 | 2.7 ± 0.9 | no detectable levels in PB or NPB | 
COc1ccc([C@@H]2CC(=O)c3c(O)cc(O[C@@H]4O[C@H](C(=O)O)[C@@H](O)[C@H](O)[C@H]4O)cc3O2)cc1O [hesperetin 7-O-glucuronide] |  |  |  |  | 0.036 ± 0.012 | 11 ± 5.8 | 7.4 ± 3.4 | 4.2 ± 2.8 | 4 ± 0.7 | no detectable levels in PB or NPB | 
COc1cc(CCO)ccc1OS(=O)(=O)O [homovanillic alcohol sulfate] |  |  |  |  |  |  |  |  |  | PB, NPB, P | PB versus NPB comparison [2]: higher concentrations in PB
O=S(=O)(O)Oc1ccc(CCO)cc1 [tyrosol 4-O-sulfate] | 31 ± 43 | 4.7 ± 6.1 | 0.9 ± 1.3 | 0.1 ± 0.08 | 0.122 ± 0.116 | 7.15 ± 3.3 | 6.5 ± 1.8 | 1 ± 0 | 20 ± 30 | PB, NPB, P | MRT0-t NPB [1]: 7.4 ± 0.4 h; T1/2 NPB [1]: 4.5 ± 1.1 h; Tmax NPB [1]: 2.0 ± 1.4 h; Tmax PB [2]: 2.3 ± 3.2 h; occurrence ([3]; listed as tyrosol 4-sulfate): identified in plasma, perfused brain (PB), and nonperfused brain (NPB)
hydroxyphenyl propionic acid sulfate [hydroxyphenyl propionic acid sulfate peak-1] |  |  |  |  |  |  |  |  |  | PB, NPB, P | 
hydroxyphenylacetic acid sulfate |  |  |  |  |  |  |  |  |  | PB, NPB, P | 

Further lines, with some results ahead:

AUC0-t NPB [1] [pmol·h/g] | Cmax NPB [1] [pmol/g tissue] | AUC0-t PB [2] [pmol·h/g] | Cmax PB [2] [pmol/g tissue] | AUC0-t plasma [4] [µM·h] | MRT0-t plasma [4] [h] | T1/2 plasma [4] [h] | Tmax plasma [4] [h] | Cmax [4, 7] [nM] | Molecule | occurrence [3] | also measured
92 ± 31 | 10 ± 1.2 | 44 ± 17 | 4.3 ± 2.8 |  |  |  |  |  | O=C(O)c1ccc(O)cc1O [2,4-dihydroxybenzoic acid] | consistently detected in plasma and brain at all time points; also recorded: PB, NPB, P | Tmax [1, 5]: 14 ± 15 h; MRT last ([1]; male, Sprague-Dawley, rat, 22 mg extract blend per capsule, one capsule per animal, read-out: MRT0-t NPB): 7.9 ± 1.1 h; half-life ([1]; male, Sprague-Dawley, rat, 22 mg extract blend per capsule, one capsule per animal, read-out: T1/2 NPB (converted)): 5.4 ± 3.6 h; Tmax [2]: 10 ± 12 h; PB versus NPB comparison [2]: significantly lower AUC values in PB compared to NPB; concentration in plasma (approximate) [4]: around 500 nM; AUC(0-t) [4, 6]: 6.42 ± 1.92 µM·h; Cmax [4, 6]: 534 ± 211 nM; MRT last [4, 6]: 22 ± 11 h; Tmax [4, 6]: 12 ± 11 h; half-life [4, 6]: 14 ± 6 h
1.1 ± 0.8 | 0.3 ± 0.04 | 1.8 ± 2.2 | 0.6 ± 0.5 |  |  |  |  |  | O=C(O)CCc1ccccc1O [3-(2-hydroxyphenyl) propionic acid] | PB, NPB, P | Tmax [1, 5]: 3.3 ± 4 h; Tmax [2]: 9 ± 1.4 h; occurrence ([3]; listed as 3-(2-hydroxyphenyl)propionic acid): consistently detected in plasma and brain at all time points; AUC(0-t) [4, 6]: 0.213 ± 0.053 µM·h; Cmax [4, 6]: 20 ± 11 nM; MRT last [4, 6]: 8.89 h; Tmax [4, 6]: 10 h; half-life [4, 6]: 8.26 h
 |  |  |  | 0.077 ± 0.031 | 9.0 ± 2.5 | 6.0 ± 1.6 | 4.5 ± 1.7 | 9.6 ± 4.5 | O=C(O)CCc1ccc(O)c(OS(=O)(=O)O)c1 [dihydrocaffeic acid 3-O-sulfate] | exclusively detected in plasma | 
60 ± 8.4 | 9.7 ± 5.7 | 16 ± 7.8 | 3.4 ± 3.1 | 1.432 ± 0.648 | 4.3 ± 1.0 | 4.0 ± 2.3 | 1.4 ± 0.9 | 303 ± 45 | O=S(=O)(O)Oc1cc(CCO)ccc1O [hydroxytyrosol 3-O-sulfate] | PB, NPB, P | MRT0-t NPB [1]: 7.1 ± 3.1 h; T1/2 NPB [1]: 7.0 ± 0.7 h; Tmax NPB [1]: 3.0 ± 0.0 h; MRT0-t PB [2]: 11 ± 5.9 h; T1/2 PB [2]: 7.3 ± 3.6 h; Tmax PB [2]: 2.7 ± 2.9 h; occurrence ([3]; listed as hydroxytyrosol 3-sulfate): identified in plasma, perfused brain (PB), and nonperfused brain (NPB)
84 ± 22 | 6.3 ± 2.6 | 52 ± 30 | 4.8 ± 1.5 | 0.793 ± 0.403 | 3.4 ± 0.5 | 3.0 ± 0.6 | 1 ± 0 | 192 ± 76 | O=S(=O)(O)Oc1ccc(CCO)cc1O [hydroxytyrosol 4′-O-sulfate] | PB, NPB, P | MRT0-t NPB [1]: 26 ± 22 h; T1/2 NPB [1]: 18 ± 14 h; Tmax NPB [1]: 2.3 ± 1.2 h; MRT0-t PB [2]: 18 ± 14 h; T1/2 PB [2]: 12 ± 8.9 h; Tmax PB [2]: 2.3 ± 2.5 h; occurrence ([3]; listed as hydroxytyrosol 4′-sulfate): identified in plasma, perfused brain (PB), and nonperfused brain (NPB)
